Some targets named below: CDK3 CCNE1 (human) (UniProt Q00526+P24864); CDK4 CCND1 (human) (UniProt P24385+P11802); CDK7 CCNH MNAT1 (human) (UniProt P50613+P51948+P51946); PRKCH (human) (UniProt P24723); MAP3K7 TAB1 (human) (UniProt O43318+Q15750); CDK1 CCNB1 (human) (UniProt P06493+P14635); CDK5 CDK5R1 p25 (human) (UniProt Q00535+Q15078); CDK6 CCND3 (human) (UniProt P30281+Q00534); CDK2 CCNE1 (human) (UniProt P24941+P24864); CDK2 CCNA2 (human) (UniProt P24941+P20248); CDK5 CDK5R1 p35 (human) (UniProt Q00535+Q15078); EPHB2 (human) (UniProt P29323); CDK4 CCND3 (human) (UniProt P30281+P11802); CDK6 CCND1 (human) (UniProt Q00534+P24385); CDK9 CCNK (human) (UniProt O75909+P50750); CDK1 CCNA2 (human) (UniProt P06493+P20248); FRK (human) (UniProt P42685); CDK9 CCNT1 (human) (UniProt P50750+O60563); TLK2 (human) (UniProt Q86UE8); LTK (human) (UniProt P29376); STK33 (human) (UniProt Q9BYT3); DYRK1B (human) (UniProt Q9Y463).

Holding throughout (experiment): radiometric filter-binding kinase assay, Kinase HotSpot
What all share (details): compound 0.5 µM; ATP 10 µM

PRKCH (human), sequence (P24723 whole entry, looked up): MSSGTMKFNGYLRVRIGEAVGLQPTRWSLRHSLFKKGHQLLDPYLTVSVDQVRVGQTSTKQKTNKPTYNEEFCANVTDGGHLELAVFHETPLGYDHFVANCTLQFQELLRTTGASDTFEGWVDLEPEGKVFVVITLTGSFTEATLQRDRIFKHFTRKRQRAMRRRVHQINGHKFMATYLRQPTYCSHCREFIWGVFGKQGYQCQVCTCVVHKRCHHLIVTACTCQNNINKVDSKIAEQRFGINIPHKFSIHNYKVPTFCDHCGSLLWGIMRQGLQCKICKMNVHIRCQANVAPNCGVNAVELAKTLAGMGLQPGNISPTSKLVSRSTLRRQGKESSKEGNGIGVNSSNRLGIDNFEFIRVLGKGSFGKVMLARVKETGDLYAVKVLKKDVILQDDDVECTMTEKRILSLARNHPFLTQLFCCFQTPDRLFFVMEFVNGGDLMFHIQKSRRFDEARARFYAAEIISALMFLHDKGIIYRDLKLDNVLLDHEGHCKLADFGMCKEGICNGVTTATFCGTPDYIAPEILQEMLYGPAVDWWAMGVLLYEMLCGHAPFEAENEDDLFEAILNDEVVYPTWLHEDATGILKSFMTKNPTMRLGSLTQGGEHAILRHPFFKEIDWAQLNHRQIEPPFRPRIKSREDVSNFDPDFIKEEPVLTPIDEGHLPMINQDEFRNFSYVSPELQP
DYRK1B (human), sequence (Q9Y463 whole entry, looked up): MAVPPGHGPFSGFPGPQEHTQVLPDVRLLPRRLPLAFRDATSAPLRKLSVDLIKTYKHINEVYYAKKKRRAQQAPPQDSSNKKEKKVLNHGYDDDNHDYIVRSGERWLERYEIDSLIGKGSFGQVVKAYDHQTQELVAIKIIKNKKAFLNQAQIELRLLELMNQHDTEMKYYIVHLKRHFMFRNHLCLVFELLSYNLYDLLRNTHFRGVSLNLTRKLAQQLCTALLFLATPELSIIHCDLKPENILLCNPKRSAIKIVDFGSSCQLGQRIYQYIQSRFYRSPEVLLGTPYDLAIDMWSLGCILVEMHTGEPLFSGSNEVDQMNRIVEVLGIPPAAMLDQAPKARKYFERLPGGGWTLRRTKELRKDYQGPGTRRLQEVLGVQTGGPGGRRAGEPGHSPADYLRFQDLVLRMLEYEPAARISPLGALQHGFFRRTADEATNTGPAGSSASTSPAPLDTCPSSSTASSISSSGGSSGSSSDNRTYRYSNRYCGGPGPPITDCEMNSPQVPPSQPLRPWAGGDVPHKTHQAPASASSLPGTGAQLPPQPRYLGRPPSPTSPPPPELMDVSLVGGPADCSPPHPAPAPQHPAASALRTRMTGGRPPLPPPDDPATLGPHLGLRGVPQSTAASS
STK33 (human), sequence (Q9BYT3 whole entry, looked up): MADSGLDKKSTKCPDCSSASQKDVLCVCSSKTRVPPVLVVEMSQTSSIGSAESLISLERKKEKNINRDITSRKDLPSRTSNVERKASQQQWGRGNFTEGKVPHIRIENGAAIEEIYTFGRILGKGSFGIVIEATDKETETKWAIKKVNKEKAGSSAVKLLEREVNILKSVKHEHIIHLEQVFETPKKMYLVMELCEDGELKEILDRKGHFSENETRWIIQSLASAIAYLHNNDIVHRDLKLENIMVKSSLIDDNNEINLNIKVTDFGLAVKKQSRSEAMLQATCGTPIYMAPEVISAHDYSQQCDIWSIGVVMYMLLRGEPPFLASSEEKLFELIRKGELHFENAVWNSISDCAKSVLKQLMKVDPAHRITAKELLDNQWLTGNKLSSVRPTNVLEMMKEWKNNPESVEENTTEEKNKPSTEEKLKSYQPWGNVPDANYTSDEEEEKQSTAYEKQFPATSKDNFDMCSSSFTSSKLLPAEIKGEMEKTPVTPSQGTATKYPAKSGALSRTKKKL
CDK9 CCNK (human), sequence (O75909 whole entry, looked up): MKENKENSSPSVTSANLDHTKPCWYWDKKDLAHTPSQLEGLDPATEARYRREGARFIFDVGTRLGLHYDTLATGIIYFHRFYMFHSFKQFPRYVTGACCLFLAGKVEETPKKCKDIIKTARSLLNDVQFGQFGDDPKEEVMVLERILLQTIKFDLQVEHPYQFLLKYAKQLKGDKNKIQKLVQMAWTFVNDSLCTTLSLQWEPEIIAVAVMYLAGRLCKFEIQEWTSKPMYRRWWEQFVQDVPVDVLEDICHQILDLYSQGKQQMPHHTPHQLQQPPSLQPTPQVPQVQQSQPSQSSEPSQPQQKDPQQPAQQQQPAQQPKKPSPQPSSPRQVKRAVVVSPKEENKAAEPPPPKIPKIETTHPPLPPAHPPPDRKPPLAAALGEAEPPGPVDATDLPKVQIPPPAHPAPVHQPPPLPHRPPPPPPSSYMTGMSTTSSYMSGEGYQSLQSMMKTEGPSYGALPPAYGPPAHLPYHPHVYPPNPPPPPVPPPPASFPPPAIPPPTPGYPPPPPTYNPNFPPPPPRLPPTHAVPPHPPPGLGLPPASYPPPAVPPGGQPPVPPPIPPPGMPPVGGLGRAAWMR
CDK9 CCNK (human), sequence (P50750 whole entry, looked up): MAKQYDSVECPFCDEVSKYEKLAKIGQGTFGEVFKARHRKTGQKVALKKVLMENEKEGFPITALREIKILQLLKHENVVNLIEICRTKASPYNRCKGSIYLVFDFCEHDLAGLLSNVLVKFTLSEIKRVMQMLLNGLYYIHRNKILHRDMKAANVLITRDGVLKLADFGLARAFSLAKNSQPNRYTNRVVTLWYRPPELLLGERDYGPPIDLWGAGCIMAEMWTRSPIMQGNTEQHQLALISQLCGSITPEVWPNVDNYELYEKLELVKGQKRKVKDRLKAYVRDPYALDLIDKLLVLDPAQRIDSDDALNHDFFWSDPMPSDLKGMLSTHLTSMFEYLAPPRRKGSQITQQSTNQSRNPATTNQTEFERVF
CDK4 CCND1 (human), sequence (P11802 whole entry, looked up): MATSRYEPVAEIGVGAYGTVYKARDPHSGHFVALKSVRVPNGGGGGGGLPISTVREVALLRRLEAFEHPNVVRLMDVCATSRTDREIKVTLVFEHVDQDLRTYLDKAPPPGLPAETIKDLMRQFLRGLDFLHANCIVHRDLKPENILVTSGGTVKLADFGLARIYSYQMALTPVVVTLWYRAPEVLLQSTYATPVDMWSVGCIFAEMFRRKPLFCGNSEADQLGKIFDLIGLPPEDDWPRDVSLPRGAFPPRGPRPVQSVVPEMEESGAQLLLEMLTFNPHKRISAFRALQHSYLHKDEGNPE
CDK4 CCND1 (human), sequence (P24385 whole entry, looked up): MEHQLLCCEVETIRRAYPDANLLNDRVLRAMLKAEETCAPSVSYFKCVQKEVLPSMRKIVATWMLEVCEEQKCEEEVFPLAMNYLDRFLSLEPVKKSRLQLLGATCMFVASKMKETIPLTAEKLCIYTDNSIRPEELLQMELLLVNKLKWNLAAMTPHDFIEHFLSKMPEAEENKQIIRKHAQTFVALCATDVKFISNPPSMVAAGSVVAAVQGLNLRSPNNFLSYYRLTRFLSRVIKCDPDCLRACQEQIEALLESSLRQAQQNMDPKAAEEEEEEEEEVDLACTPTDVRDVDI
CDK4 CCND3 (human), sequence (P11802 whole entry, looked up): as the sequence (P11802 whole entry, looked up) above
CDK4 CCND3 (human), sequence (P30281 whole entry, looked up): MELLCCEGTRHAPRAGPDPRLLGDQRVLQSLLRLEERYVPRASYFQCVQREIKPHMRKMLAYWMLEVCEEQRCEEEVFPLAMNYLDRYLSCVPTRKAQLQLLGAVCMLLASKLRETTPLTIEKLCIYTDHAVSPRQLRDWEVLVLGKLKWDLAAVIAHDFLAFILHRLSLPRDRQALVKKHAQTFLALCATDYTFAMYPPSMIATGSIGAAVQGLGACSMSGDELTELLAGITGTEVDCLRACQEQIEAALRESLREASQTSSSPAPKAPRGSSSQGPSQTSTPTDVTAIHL
CDK2 CCNA2 (human), sequence (P20248 whole entry, looked up, other chains not shown): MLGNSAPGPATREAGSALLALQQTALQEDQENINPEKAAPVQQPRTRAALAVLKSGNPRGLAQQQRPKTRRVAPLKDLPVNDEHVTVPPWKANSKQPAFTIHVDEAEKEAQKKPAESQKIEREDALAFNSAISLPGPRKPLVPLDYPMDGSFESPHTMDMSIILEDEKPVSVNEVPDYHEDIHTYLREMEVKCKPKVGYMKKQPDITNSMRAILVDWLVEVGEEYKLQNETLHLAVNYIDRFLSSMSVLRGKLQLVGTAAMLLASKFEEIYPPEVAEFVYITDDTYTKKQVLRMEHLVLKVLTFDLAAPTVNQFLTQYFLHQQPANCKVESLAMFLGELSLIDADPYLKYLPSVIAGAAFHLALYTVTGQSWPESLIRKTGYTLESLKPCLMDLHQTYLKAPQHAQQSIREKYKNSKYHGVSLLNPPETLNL
CDK2 CCNE1 (human), sequence (P24864 whole entry, looked up, other chains not shown): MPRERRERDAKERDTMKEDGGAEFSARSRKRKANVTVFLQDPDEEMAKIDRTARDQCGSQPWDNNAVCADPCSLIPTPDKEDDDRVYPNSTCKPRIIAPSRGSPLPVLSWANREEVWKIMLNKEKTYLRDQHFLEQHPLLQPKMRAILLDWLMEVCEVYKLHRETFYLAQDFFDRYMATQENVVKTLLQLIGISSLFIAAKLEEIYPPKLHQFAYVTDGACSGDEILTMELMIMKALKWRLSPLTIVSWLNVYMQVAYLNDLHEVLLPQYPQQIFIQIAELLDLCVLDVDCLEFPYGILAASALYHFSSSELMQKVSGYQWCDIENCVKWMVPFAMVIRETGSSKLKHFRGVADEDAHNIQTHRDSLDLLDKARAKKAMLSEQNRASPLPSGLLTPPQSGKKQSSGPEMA
CDK3 CCNE1 (human), sequence (P24864 whole entry, looked up): as the sequence (P24864 whole entry, looked up, other chains not shown) above
CDK3 CCNE1 (human), sequence (Q00526 whole entry, looked up): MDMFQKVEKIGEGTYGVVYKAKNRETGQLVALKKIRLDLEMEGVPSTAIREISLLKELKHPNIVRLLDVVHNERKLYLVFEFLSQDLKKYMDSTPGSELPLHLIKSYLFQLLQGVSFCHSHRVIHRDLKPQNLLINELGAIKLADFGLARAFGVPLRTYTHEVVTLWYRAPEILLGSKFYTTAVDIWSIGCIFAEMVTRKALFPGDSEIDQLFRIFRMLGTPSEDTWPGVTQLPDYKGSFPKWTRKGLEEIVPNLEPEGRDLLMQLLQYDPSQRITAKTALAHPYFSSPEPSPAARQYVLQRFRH

Regarding `Cc1nc(Nc2ncc(C(=O)Nc3c(C)cccc3Cl)s2)cc(N2CCN(CCO)CC2)n1`, the residual activity on CDK3 CCNE1 (human) amounted to 91.7%; on CDK4 CCND1 (human), 94.4%; at CDK7 CCNH MNAT1 (human), 112%; at PRKCH (human), 106%; on MAP3K7 TAB1 (human) it was 87.3%; at CDK1 CCNB1 (human), 93.9%. The residual activity is 102% on CDK5 CDK5R1 p25 (human); 103% at CDK6 CCND3 (human); 95.9% at CDK2 CCNE1 (human); 92.4% at CDK2 CCNA2 (human); 101% on CDK5 CDK5R1 p35 (human); -0.191% on EPHB2 (human). The residual activity was 99.1% on CDK4 CCND3 (human); 95.5% on CDK6 CCND1 (human); 104% at CDK9 CCNK (human); 96.3% on CDK1 CCNA2 (human); -0.878% on FRK (human); 84.1% on CDK9 CCNT1 (human).
Take `Cc1cc(C)c(/C=C2\C(=O)Nc3ccccc32)[nH]1`: the residual activity at PRKCH (human) stood at 94.7%; at TLK2 (human), 98.5%.
`CO[C@H]1[C@@H](OC)C[C@H](C)[C@@H](OC)C2=CC(=O)C=C(NC(=O)/C(C)=C\C=C/[C@H](OC)[C@@H](OC(N)=O)/C(C)=C\[C@@H]1C)C2=O`: the residual activity was determined as 95.3% on PRKCH (human), 98.5% at LTK (human), 97% on STK33 (human) and 104% at DYRK1B (human).
For the compound `COC[C@H]1OC(=O)c2coc3c2[C@@]1(C)C1=C(C3=O)[C@@H]2CCC(=O)[C@@]2(C)C[C@H]1OC(C)=O`, the residual activity at CDK3 CCNE1 (human) was 95.2%; at CDK4 CCND1 (human), 94.8%; at CDK7 CCNH MNAT1 (human), 93.3%; at PRKCH (human), 100%; at MAP3K7 TAB1 (human), 97.2%; at CDK1 CCNB1 (human), 101%. Besides, the residual activity at CDK5 CDK5R1 p25 (human) is 87.6%; on CDK6 CCND3 (human), 85.8%; at CDK2 CCNE1 (human), 105%; at CDK2 CCNA2 (human), 93.5%; at CDK5 CDK5R1 p35 (human), 88.7%; at STK33 (human), 88.2%. Further, the residual activity on CDK4 CCND3 (human) amounted to 98.8%; at CDK6 CCND1 (human), 90.1%; at CDK9 CCNK (human), 107%; on CDK1 CCNA2 (human), 97%; at DYRK1B (human), 100%; at CDK9 CCNT1 (human) it was 93.7%.
On to `CC(C)n1cnc2c(NCc3ccccc3)nc(NCCCO)nc21`, for which the residual activity on PRKCH (human) amounted to 77%.
As to `O=[N+]([O-])/C=C/c1ccc2c(c1)OCO2`, the residual activity was determined as 103% on PRKCH (human), 96.4% at LTK (human), 94.2% on STK33 (human) and 112% at DYRK1B (human).
Turning to `O=C(Nc1nc2ccccc2n1CCN1CCOCC1)c1cccc([N+](=O)[O-])c1`, the residual activity on PRKCH (human) came out at 94.9%.
